# Entries after “also recorded” stand apart in the source; their conditions may differ.
# Key:
# [1] = Cytotoxicity assay (LTR-luc luciferase reporter); format: cell-based; conditions: human; Huh-7 LTR-luc cells
# Description: (§1) The anti-HCV activity and toxicity of the exemplary compounds can be tested in two biological assays—a cell-based HCV replicon assay and cytotoxicity assay (WO 2007/027248).
# A Huh-7 cell line carrying a luciferase reporter gene (driven by a HIV LTR promoter) stably integrated into the chromosome was used to analyze the cytotoxic effect of the selected compounds. This cell line (LTR-luc) was maintained in DMEM medium with 10% FBS. Design of the cytotoxicity assay was similar to that of the HCV replicon assay. Reduction of luciferase activity in the treated cells correlated with the cytotoxic effect of the test compound and was used to calculate the CC50 value (concentration that inhibited cell growth by 50%).
# (§2) The biological activities using subgenomic genotype 1a replicon and cytotoxicity of the selected compounds are summarized in Table 2.
# [2] = system: HCV subgenomic replicon (genotype 1a) in Huh-7 cells; experiment: HCV replicon assay (luciferase reporter); format: cell-based; conditions: for EC50: Hepatitis C virus, subgenomic genotype 1a replicon, Huh-7 luc-ubi-neo, 48 h, diastereomer mixtures
# Procedure: Anti-HCV activity and cytotoxicity of compounds disclosed herein were assayed following patent method (WO 2007/027248).
# as §1
# A human hepatoma cell line (Huh-7) containing replicating HCV subgenomic replicon with a luciferase reporter gene (luc-ubi-neo) was used to evaluate anti-HCV activity of the compounds. In this assay, level of luciferase signal correlates with the viral RNA replication directly. The HCV replicon-reporter cell line (NK/luc-ubi-neo) was cultured in DMEM medium supplemented with 10% fetal bovine serum and 0.5 mg/ml Geneticin (G418). Cells were maintained in a subconfluent state to ensure high levels of HCV replicon RNA synthesis.
# To evaluate the antiviral activity of compounds, serial dilutions were prepared with concentrations ranging from 0.14 to 300 μM. Diluted compounds were transferred to a 96-well plate followed by the addition of replicon cells (6000 cells per well). Cells were incubated with the compounds for 48 h after which luciferase activity was measured. Reduction of luciferase signal reflected the decrease of HCV replicon RNA in the treated cells and used to determine the EC50 value (concentration which yielded a 50% reduction in luciferase activity).
# as §2
# [3] = Rat plasma and liver PK after iv administration; format: in vivo, SD rats
# Procedure: Pharmacokinetic (PK) study of prodrug FDURP (DGX-102) and parent drug (FDUR) in rats was completed according to following procedure.
# SD rats (250-300 g, male, N=15) were used for each compound, purchased from SLAC Laboratory Animal Co. LTD Qualification No.: SCXK (SH) 2007-0005, 13264. Compounds FDUR and FDURP were each dosed via tail vein injection. The animal was restrained manually at designated time points. Approximately 500 μL of blood/time point was collected into K2EDTA tube via cardiac puncture for terminal bleeding under anesthesia with Isoflurane. FDUR and FDURP blood samples were put on ice after collection and then centrifuged to obtain plasma sample (2000 g, 5 min, 4° C.) within 15 minutes of sampling. The blood samples were then centrifuged to obtain plasma sample (2000 g, 5 min, 4° C.). All the plasma samples were immediately quenched for protein precipitation. Liver samples of each compound were removed at designated time points by first sacrificing the animal by CO2 inhalation, then perfusing the liver with ice cold saline and removing the left middle liver lobe, which was then snap frozen in dry ice. Liver samples were stored at approximately −80° C. until analysis. The liver homogenate was then processed for further analysis by LC/MS-MS. Plasma and liver samples were stored at approximately −80° C. until analysis.
# Concentrations of prodrugs, parent drug and possible metabolites in both plasma and liver including FDURMP, FDUR, FDUR-MP and 5FU were determined by LC/MS-MS.
compound,measurement,setting,value
CC1(F)C(O)C(CO)OC1n1ccc(=O)[nH]c1=O (centres unmarked) [DGX-103],CC50,[1],> 100 µM
same,anti-HCV activity (in words),[2],biologically inactive
same,EC50,[2],> 100 µM
COc1ccc(COP(=O)(NCc2ccccc2)OCC2OC(n3ccc(=O)[nH]c3=O)C(C)(F)C2O)cc1F (centres unmarked) [DGX-104],CC50,[1],> 100 µM
same,anti-HCV activity (in words),[2],biologically potent; also recorded: potent anti-HCV activity
same,EC50,[2],4.1 µM
Cc1ccccc1COP(=O)(NCc1ccccc1)OCC1OC(n2ccc(=O)[nH]c2=O)C(C)(F)C1O (centres unmarked) [DGX-105],CC50,[1],> 100 µM
same,anti-HCV activity (in words),[2],biologically potent; also recorded: potent anti-HCV activity
same,EC50,[2],1.9 µM
CC1(F)C(O)C(COP(=O)(NCc2ccccc2)OCc2ccccc2)OC1n1ccc(=O)[nH]c1=O (centres unmarked) [DGX-106],CC50,[1],> 100 µM
same,anti-HCV activity (in words),[2],did not show any anti-HCV activity
same,EC50,[2],> 100 µM
COc1nc(N)nc2c1ncn2C1OC(CO)C(O)C1(C)O (centres unmarked) [DGX-110],CC50,[1],> 100 µM
same,anti-HCV activity (in words),[2],biologically active
same,EC50,[2],0.9 µM
COc1nc(N)nc2c1ncn2C1OC(COP(=O)(NCc2ccccc2)OCc2ccccc2C)C(O)C1(C)O (centres unmarked) [DGX-111],CC50,[1],69 µM
same,anti-HCV activity (in words),[2],biologically much more potent
same,EC50,[2],0.3 µM
"O=c1[nH]c(=O)n([C@H]2C[C@H](O)[C@@H](CO)O2)cc1F [FDUR, 5-fluoro-2′-deoxyuridine, reference compound]",Active metabolite FDUR-MP in the liver after administration,[3]; iv,not
same,liver Cmax,"[3]; monitored compound 5FU, iv",BQL
same,liver Cmax,"[3]; monitored compound FDUR, iv",BQL
same,liver Cmax,"[3]; monitored compound FDUR-MP, iv",BQL
same,"Drug FDUR Concentration, Liver","[3]; sampling 1, iv 0.015 mmol/kg",BQL
same,"Drug FDUR Concentration, Liver","[3]; sampling 2, iv 0.015 mmol/kg",BQL
same,"Drug FDUR Concentration, Plasma","[3]; sampling 2, iv 0.015 mmol/kg",BQL
same,"Drug FDUR Concentration, Liver","[3]; sampling 4, iv 0.015 mmol/kg",BQL
same,"Drug FDUR Concentration, Plasma","[3]; sampling 4, iv 0.015 mmol/kg",BQL
same,"Drug FDUR Concentration, Liver","[3]; sampling 8, iv 0.015 mmol/kg",BQL
same,"Drug FDUR Concentration, Plasma","[3]; sampling 8, iv 0.015 mmol/kg",BQL
same,"Drug FDUR Concentration, Liver","[3]; sampling 24, iv 0.015 mmol/kg",BQL
same,"Drug FDUR Concentration, Plasma","[3]; sampling 24, iv 0.015 mmol/kg",BQL
Cc1ccccc1COP(=O)(NCc1ccccc1)OCC1OC(n2cc(F)c(=O)[nH]c2=O)CC1O (centres unmarked) [FDURP],Active metabolite FDUR-MP in the liver after administration,[3]; iv,detected in the liver
same,"Concentrations of related active drugs (FDUR, FDUR-MP, 5FU) compared with administration of FDUR",[3]; iv,significantly increased
same,Exposure in plasma and liver compared with parent drug FDUR,[3]; iv,significantly greater
same,Tmax,"[3]; male, Sprague-Dawley, liver, 0.015 mmol/kg, monitored compound FDURP, iv",60 min
same,AUC(0-inf),"[3]; male, Sprague-Dawley, plasma, 0.015 mmol/kg, monitored compound FDURP, iv",10400 ng·h/mL
same,half-life,"[3]; male, Sprague-Dawley, plasma, 0.015 mmol/kg, monitored compound FDURP, iv, printed in Tmax column, read-out: plasma T½ (converted)",27 min
same,liver AUC(inf),"[3]; monitored compound FDURP, iv",1750 ng·h/mL
same,liver Cmax,"[3]; monitored compound FDURP, iv",1573 ng/mL
same,"Drug FDUR Concentration, Liver","[3]; sampling 1, iv 0.015 mmol/kg",BQL
same,"Drug FDUR Concentration, Liver","[3]; sampling 2, iv 0.015 mmol/kg",BQL
same,"Drug FDUR Concentration, Plasma","[3]; sampling 4, iv 0.015 mmol/kg",BQL
same,"Drug FDUR Concentration, Plasma","[3]; sampling 8, iv 0.015 mmol/kg",BQL
same,"Drug FDUR Concentration, Plasma","[3]; sampling 24, iv 0.015 mmol/kg",BQL
